The values that follow come from patent US10889596B2, “Beta-amino pateamine a derivatives and methods for treating chronic lymphocytic leukemia” (The Texas A&M University System, priority 2016, dated 2021).

The test system of one data set is primary CLL cells. As to the kind of experiment: Toxicity/apoptosis in primary CLL cells, annexin V/PI double staining and flow cytometry. The data set is classed as cell-based, human. The note with it: for influence of human plasma content on potency: RPMI with 10% fetal bovine serum, 10% or 50% patient plasma. The procedure: (§1) The mechanism of action of DMDAPatA was studied in multiple primary CLL samples (FIG. 3A). […] CLL cells were incubated with DMDAPatA for 4 and 24 h then pulse labeled with [^3H]leucine for 1 h. The amount of [^3H]leucine incorporation into the acid insoluble materials (DNA, RNA and proteins) was measured by scintillation counter. […] This is consistent in 3 samples as quantitated in FIG. 3C. The Bcl-2 level was not affected by DMDAPatA, which is consistent with its longer half-life (FIG. 3C). […] MOMP facilitates the release of cytochrome c from mitochondria to form the apoptosome, which activated caspase-3 and induced apoptosis. As PARP is a substrate of caspase-3, an increase of cleaved PARP in FIG. 3C indicated activation of caspase 3. Apoptosis was measured by annexin V and propodium iodide (PI) double staining followed by flow cytometry.
(§2) To screen for PatA analogs with greater potency and less plasma protein binding, the toxicity of the analogs to primary CLL cells was measured after 24 of incubation by annexin/PI double staining followed by flow cytometry. This was compared between CLL cells cultured in media supplemented with either 10% FBS or patient plasma to evaluate the plasma influence. Plasma protein binding was assessed using the equilibrium dialysis method (FIG. 7B).
A general note: A flow cytometer gives signals particle by particle.

Data set [1] has as its system P388 murine leukemia cells. The note with it: read-out: IC50, cytotoxic activity; cited from earlier work.
In data set [2] the test system is B cells from normal donors. As to the kind of experiment: Cellular toxicity to B cells from normal donors. The data set is classed as cell-based, human. An excerpt:
(§3) To predict the therapeutic window of the PatA analogs, their cellular toxicity was compared to CLL cells and to B and T cells from normal donors (FIGS. 8A and 8B). […] PatA was originally identified as a biological probe that inhibits T cell activation, consistent with its toxicity to T cells.

Data set [3] concerns T cells from normal donors. Briefly: Cellular toxicity to T cells from normal donors. The class given is cell-based, human.
Description: as §3

Data set [4] in a line: Stability of DMDAPatA in RPMI, FBS and human plasma. The data set is classed as in vitro ADME. The settings on record: read-out: Half-life time (converted). The procedure: These experiments were performed in CLL cells cultured in media supplemented with 10% patient plasma. While mimicking the in vivo environment, we also found this condition beneficial in maintaining cell survival. One potential reason for the reduced potency in the presence of human plasma is stability. To test this theory, the stability of DMDAPatA was studied in FBS and human plasma at two different concentrations.

Data set [5] concerns protein synthesis in CLL cells. Briefly: [3H]leucine incorporation analysis of protein synthesis in CLL cells. The data set is classed as cell-based, human. The settings on record: CLL cells incubated 4 and 24 h, pulse labeled 1 h. The procedure: as §1
(§4) To confirm that the analogs retain the inhibition on protein synthesis, leucine incorporation analysis was performed on the analogs (FIG. 9A) and compared to DMDAPatA and PatA.

The test system of a further data set is Bcl-2. As to the kind of experiment: Immunoblot of Bcl-2 level in CLL cells. The class given is cell-based, human. The settings on record: CLL samples. The procedure:
as §1
A general note: A western blot detects proteins with antibodies after separation by electrophoresis.

Data set [6] in a line: Plasma protein binding, equilibrium dialysis. The class given is in vitro ADME, human. The procedure:
as §2
In this example, the plasma protein binding assay used to provide the plasma protein binding data is described.
The assay includes the following steps.
1. Frozen plasma was thawed and centrifuged at 1120 g for 10 min to remove any particulates. The plasma was decanted, the pH was measured and, if required, was adjusted to pH7.4 with lactic acid.
2. All compounds were prepared at 10 mM concentration in DMSO. The solutions were carefully vortexed to ensure the compounds dissolved. The 10 mM DMSO solutions were diluted to 500 μM MeOH solutions (5+95 μl).
3. In a 2 mL 96-well plate (DWP), 1000 μL of plasma was pipetted into each well in Columns 1-4.
4. 10 μL of the 500 μM compound solution was pipetted to 1000 μL of corresponding plasma. (The final DMSO=0.05%). The solution was capped and carefully vortexed for 5 min.
5. 200 μL of PBS buffer was added to each receiver well of the dialysis plate (buffer was added to the Receiver first).
6. The bottom of dialysis plate was capped and turned over to the orange donor side (top) of dialysis plate.
7. The orange donor side of the dialysis plate was uncapped and 200 μL of the 10 μM drug/plasma samples were transferred from the 2 ml 96-DWP to the corresponding donor wells in the dialysis plate. The orange donor side of the dialysis plate was then capped.
8. The dialysis plate was placed onto the plate rotator in a 37° C. oven and incubated at 37° C. with a rotation speed 20 rpm for 22 hr.
9. To a 1 mL 96-DWP, 50 μL/well of the 5 μM drug/plasma samples was pipetted from the 2 mL 96-DWP in triplicate. 50 μL/well of PBS and then 300 μL of ACN/IS was added. The plate was kept at 4° C. This plate serves as the recovery plate.
10. Two 1 mL 96-DWP were prepared and marked as Donor Plate and Receiver Plate.
11. The dialysis plate was removed from the 37° C. oven.
12. The caps were removed from the donor side of the dialysis plate.
13. 50 μL of samples were pipetted from the donor side of the dialysis plate and added into the 96-DWP Donor Plate. 50 μL of PBS buffer was added into the 96-DWP Donor Plate.
14. The donor side of the dialysis plate was capped and turned over. Caps were removed from the Receiver side wells. 50 uL of samples were pipetted from the Receiver side of the dialysis plate and added to the 96-DWP Receiver Plate. […]
23. The samples in the Receiver Plate, Donor Plate, and Recovery Plate were analyzed by LC/MS/MS […]
On the technique in general: Equilibrium dialysis compares concentrations on both sides of a semipermeable membrane.

Data set [7] deals with models of human leukemia and melanoma. The settings on record: mice; cited from earlier work.
A further data set has as its system Mcl-1. Briefly: Immunoblot of Mcl-1 level in CLL cells. The data set is classed as cell-based, human. The settings on record: CLL samples. The procedure:
as §1, §4

The mark [8] stands for this setting: primary CLL cells, media with 10% FBS, 24 incubation, read-out: IC50 (μM) 10% FBS.
The mark [9] stands for this setting: primary CLL cells, media with 10% patient plasma, 24 incubation, read-out: IC50 (μM) 10% Plasma.
[10] abbreviates: Homo sapiens, CLL cell, primary CLL cells, media with 10% FBS, 24 incubation, read-out: IC50 (μM) 10% FBS.
The mark [11] stands for this setting: Homo sapiens, CLL cell, primary CLL cells, media with 10% patient plasma, 24 incubation, read-out: IC50 (μM) 10% Plasma.
Where [12] appears, read: RPMI medium without serum, Pure RPMI.

Where “and” joins values, the source holds several entries; their conditions need not be identical. Identical values can stand only once. Like-named read-outs stand apart in the source and are kept apart here.

Consider “1,1,1-Trichloro-2-methylpropan-2-yl ((12Z,3S,6Z,8E,11S,15R)-3-((1E,3E,5E)-7-(dimethyl amino)-2-methylhepta-1,3,5-trien-1-yl)-9,11-dimethyl-5,13-dioxo-4,12-dioxa-1(2,4)-thiazolacycloheptadecaphane-6,8-dien-15-yl)carbamate [OR-IV-211]”, for which the 50% inhibitory concentration (IC50) in the data set on primary CLL cells (setting [8]) came out at 3.5 µM; in the data set with primary CLL cells (setting [9]), 6.65 µM.

Take `CC(/C=C/C(C)=C/[C@@H]1Cc2nc(cs2)[C@@H](C)C[C@@H](N)CC(=O)O[C@@H](C)C/C(C)=C/C=C\C(=O)O1)=C\CN(C)C` [PatA, Pateamine A]: the IC50 in data set [1] is 0.27 nM; with primary CLL cells (setting [10]) it was 0.2 µM; in the data set with primary CLL cells (setting [11]) it was 0.2 µM. The “toxicity to normal B cells compared with CLL cells” value in data set [2] is “similarly toxic to CLL cells as well as normal B and T cells”. In addition, the “toxicity to normal T cells compared with CLL cells” value in [3] was “similarly toxic to CLL cells as well as normal B and T cells”. Also, the “influence of human plasma content on potency” value in the data set on primary CLL cells is on record as “not as influential”.

`CC(/C=C/C(C)=C/[C@@H]1Cc2nc(cs2)CCCCC(=O)O[C@@H](C)C/C(C)=C/C=C\C(=O)O1)=C\CN(C)C` [DMDAPatA, Des-methyl, des-amino Pateamine A]: the half-life at 1 µM in data set [4] (Fetal Bovine Serum) was 16 h; in [4] (Human Plasma), 18 h; in data set [4] (setting [12]) it was 3 h. Moreover, the results for the half-life at 10 µM in data set [4] (Fetal Bovine Serum), in data set [4] (Human Plasma) and in data set [4] (setting [12]) were 11.5 h, 14 h and 3.2 h, respectively. Moreover, the “inhibition of protein synthesis ([3H]leucine incorporation)” value in [5] was “inhibit protein synthesis”. In the data set on Bcl-2, the Bcl-2 level result is recorded as “not affected”. In addition, in data set [6], the recovery in plasma result was “low recovery”. The plasma protein bound in [6] (human plasma) was 99.7% and > 99%. In addition, in data set [7], the “activity in xenograft models” value was “significant tumor reduction”. Moreover, the Mcl-1 level entry in the data set on Mcl-1 was “reduced the short-lived anti-apoptotic protein Mcl-1”. Besides, the “potency relative to PatA (times less potent)” value in the data set with primary CLL cells (CLL cells, media with 10% patient plasma) is reported as “about 30 times”. The “IC50 in samples with favorable versus poor prognostic characteristics” value in the data set with primary CLL cells (CLL patient samples by prognostic group) is given as “no significant differences”. The IC50 in the data set on primary CLL cells (Homo sapiens, CLL cell, measured in 13 CLL samples, read-out: average IC50) is 2.8 µM; in the data set on primary CLL cells (setting [10]), 0.65 µM; in the data set on primary CLL cells (setting [11]) it was 6.42 µM. The “influence of human plasma content on potency” value in the data set with primary CLL cells is “greatly reduced the potency”.

Turning to `CC(/C=C/C(C)=C/[C@@H]1Cc2nc(cs2)CC[C@@H](N)CC(=O)O[C@@H](C)C/C(C)=C/C=C\C(=O)O1)=C\CN(C)C` [OR-IV-234, (12Z,3S,6Z,8E,11S,15R)-15-amino-3-((1E,3E,5E)-7-(dimethylamino)-2,5-dimethylhepta-1,3,5-trien-1-yl)-9,11-dimethyl-4,12-dioxa-1(2,4)-thiazolacycloheptadecaphane-6,8-diene-5,13-dione], in data set [6], the “plasma protein binding (PPB) compared with PatA and DMDAPatA” value is on record as “much lower plasma protein binding”; the recovery in plasma entry is given as “modest recovery”. Further, in the data set on primary CLL cells (setting [8]), the half-inhibitory concentration (IC50) was 0.33 µM. Moreover, in the data set with primary CLL cells (setting [9]), the IC50 is 0.35 µM.

As to `CC(=O)NC1CCc2csc(n2)CC(C=C(C)C=CC(C)=CCN(C)C)OC(=O)C=CC=C(C)CC(C)OC(=O)C1` [MZ732, N-((12Z,3S,6Z,8E,11S,15R)-3-((1E,3E,5E)-7-(dimethylamino)-2,5-dimethylhepta-1,3,5-trien-1-yl)-9,11-dimethyl-5,13-dioxo-4,12-dioxa-1(2,4)-thiazolacycloheptadecaphane-6,8-dien-15-yl)acetamide], the IC50 in the data set with primary CLL cells (setting [8]) was 4.58 µM; with primary CLL cells (setting [9]) it was 6.8 µM.

The term IC50 denotes the concentration needed to halve the response being measured. As usually defined, the half-life is the time in which the quantity being followed falls by half.
